# Measured values as given in patent US9833497B2, “Human originated EGF domain proteins and use of the same” (CHENGDU SOURCEBIO LIMITED-LIABILITY COMPANY, priority 2013, dated 2017).
# Experiments:
# Assay type in all cases: cell-based
# Proteus mirabilis = experiment: MIC against Gram-negative bacteria: Proteus mirabilis; details: 5×10^5 CFU/mL; for MIC against P. mirabilis: Proteus mirabilis
# Outline: (§1)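 Antibacterial activity of purified human EGF domain proteins: two-fold concentration series, triplicate wells, LB broth, 5×10^5 CFU/mL bacteria, 37° C shaking incubation. The lowest concentration without growth defines the MIC.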
# Proteus vulgaris = experiment: MIC against Gram-negative bacteria: Proteus vulgaris; details: 5×10^5 CFU/mL; for MIC against P. vulgaris: Proteus vulgaris
# Outline: as §1
# Klebsiella pneumonia = experiment: MIC against Gram-negative bacteria: Klebsiella pneumonia; details: 5×10^5 CFU/mL; for MIC against K. pneumonia: Klebsiella pneumonia
# Outline: as §1
# Citrobacter diversus = experiment: MIC against Gram-negative bacteria: Citrobacter diversus; details: 5×10^5 CFU/mL; for MIC against C. diversus: Citrobacter diversus
# Outline: as §1
# Pseudomonas aeruginosa = experiment: MIC against Gram-negative bacteria: Pseudomonas aeruginosa; details: 5×10^5 CFU/mL; for MIC against P. aeruginosa: Pseudomonas aeruginosa
# Outline: as §1
# Serratia marcescens = experiment: MIC against Gram-negative bacteria: Serratia marcescens; details: 5×10^5 CFU/mL; for MIC against S. marcescens: Serratia marcescens
# Outline: as §1
# E. coli BL21 = experiment: MIC against Gram-negative bacteria: E. coli BL21; details: 5×10^5 CFU/mL
# Outline: as §1
# E. coli DH5α = experiment: Antibacterial activity: MIC and growth curve against E. coli DH5α in 96-well plate; details: minimal inhibitory concentration against E. coli DH5α; 96-well plate, 5×10^5 CFU/mL, 37° C., judged after 8 h
# Outline: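 MIC taken as lowest protein level with no bacterial growth, tracked by A600 every 30 min during 37 °C, 175 rpm culture. Two-fold protein series 50-12.5 μg/mL final, triplicate wells, against 5×10^5 CFU/mL of LB-washed mid-log cells.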
# Enterobacter cloacae = experiment: MIC against Gram-negative bacteria: Enterobacter cloacae; details: 5×10^5 CFU/mL; for MIC against E. cloacae: Enterobacter cloacae
# Outline: as §1
# Moraxella catarrhalis = experiment: MIC against Gram-negative bacteria: Moraxella catarrhalis; details: 5×10^5 CFU/mL; for MIC against M. catarrhalis: Moraxella catarrhalis
# Outline: as §1
# Aeromonas hydrophila = experiment: MIC against Gram-negative bacteria: Aeromonas hydrophila; details: 5×10^5 CFU/mL; for MIC against A. hydrophila: Aeromonas hydrophila
# Outline: as §1
Substance,MIC (E. coli DH5α) [µg/mL],MIC against P. mirabilis (Proteus mirabilis; 10 h cultivation at 37° C.) [µg/mL],MIC against P. vulgaris (Proteus vulgaris; 10 h cultivation at 37° C.) [µg/mL],MIC against K. pneumonia (Klebsiella pneumonia; 10 h cultivation at 37° C.) [µg/mL],MIC against C. diversus (Citrobacter diversus; 10 h cultivation at 37° C.) [µg/mL],MIC against P. aeruginosa (Pseudomonas aeruginosa; 10 h cultivation at 37° C.) [µg/mL],MIC against S. marcescens (Serratia marcescens; 10 h cultivation at 37° C.) [µg/mL],MIC against E. coli BL21 (E. coli BL21; 10 h cultivation at 37° C.) [µg/mL],MIC against E. cloacae (Enterobacter cloacae; 10 h cultivation at 37° C.) [µg/mL],MIC against M. catarrhalis (Moraxella catarrhalis; 10 h cultivation at 37° C.) [µg/mL],MIC against A. hydrophila (Aeromonas hydrophila; 10 h cultivation at 37° C.) [µg/mL],further results
PRT762 (ALDPCVLGTHQCQHVCISDGEGKHHCECSQGYTLNADKKTCS; listed as Homo sapiens),50,–,–,–,–,–,–,–,–,–,–,MIC (μg/mL) P. mirabilis (Proteus mirabilis; 10 h cultivation at 37° C.): 50 µg/mL; MIC (μg/mL) P. vulgaris (Proteus vulgaris; 10 h cultivation at 37° C.): 25 µg/mL; MIC (μg/mL) K. pneumonia (Klebsiella pneumonia; 10 h cultivation at 37° C.): 12.5 µg/mL; MIC (μg/mL) C. diversus (Citrobacter diversus; 10 h cultivation at 37° C.): 50 µg/mL; MIC (μg/mL) P. aeruginosa (Pseudomonas aeruginosa; 10 h cultivation at 37° C.): 50 µg/mL; MIC (μg/mL) S. marcescens (Serratia marcescens; 10 h cultivation at 37° C.): 12.5 µg/mL; MIC (μg/mL) E. coli BL21 (E. coli BL21; 10 h cultivation at 37° C.): 12.5 µg/mL; MIC (μg/mL) E. cloacae (Enterobacter cloacae; 10 h cultivation at 37° C.): 50 µg/mL; MIC (μg/mL) M. catarrhalis (Moraxella catarrhalis; 10 h cultivation at 37° C.): 12.5 µg/mL; MIC (μg/mL) A. hydrophila (Aeromonas hydrophila; 10 h cultivation at 37° C.): 12.5 µg/mL
PRT1396 (LGADCAKAACPVLCSGNGQYSKGTCQCYSGWKGAECD; listed as Homo sapiens),12.5,12.5,25,12.5,12.5,12.5,12.5,12.5,25,25,25,–
PRT1420 (GAWDCSVENGGCEHACNAIPGAPRCQCPAGAALQADGRSCT; listed as Homo sapiens),12.5,12.5,25,12.5,12.5,12.5,50,12.5,12.5,25,25,–
PRT1344 (DIDECSPLPCLNNGVCKDLVGEFICECPSGYTGQRCE; listed as Homo sapiens),12.5,12.5,50,12.5,12.5,25,25,50,25,50,50,–
PRT676 (DINECAMPGVCRHGDCLNNPGSYRCVCPPGHSLGPSRTQCI; listed as Homo sapiens),25,–,–,–,–,–,–,–,–,–,–,"MIC P. mirabilis (Proteus mirabilis; 96-well plate, 37° C., 10 h): 12.5 µg/mL; MIC P. vulgaris (Proteus vulgaris; 96-well plate, 37° C., 10 h): 50 µg/mL; MIC K. pneumonia (Klebsiella pneumonia; 96-well plate, 37° C., 10 h): 50 µg/mL; MIC C. diversus (Citrobacter diversus; 96-well plate, 37° C., 10 h): 50 µg/mL; MIC P. aeruginosa (Pseudomonas aeruginosa; 96-well plate, 37° C., 10 h): 12.5 µg/mL; MIC S. marcescens (Serratia marcescens; 96-well plate, 37° C., 10 h): 12.5 µg/mL; MIC E. coli BL21 (E. coli BL21; 96-well plate, 37° C., 10 h): 50 µg/mL; MIC E. cloacae (Enterobacter cloacae; 96-well plate, 37° C., 10 h): 25 µg/mL; MIC M. catarrhalis (Moraxella catarrhalis; 96-well plate, 37° C., 10 h): 25 µg/mL; MIC A. hydrophila (Aeromonas hydrophila; 96-well plate, 37° C., 10 h): 12.5 µg/mL"
PRT1354 (RDRQCPRDCSNRGLCVDGQCVCEDGFTGPDCA; listed as Homo sapiens),25,25,12.5,50,25,25,25,12.5,25,50,12.5,–
PRT673 (DVDECLDESNCRNGVCENTRGGYRCACTPPAEYSPAQRQCL; listed as Homo sapiens),50,–,–,–,–,–,–,–,–,–,–,"MIC P. mirabilis (Proteus mirabilis; 96-well plate, 37° C., 10 h): 50 µg/mL; MIC P. vulgaris (Proteus vulgaris; 96-well plate, 37° C., 10 h): 12.5 µg/mL; MIC K. pneumonia (Klebsiella pneumonia; 96-well plate, 37° C., 10 h): 50 µg/mL; MIC C. diversus (Citrobacter diversus; 96-well plate, 37° C., 10 h): 25 µg/mL; MIC P. aeruginosa (Pseudomonas aeruginosa; 96-well plate, 37° C., 10 h): 50 µg/mL; MIC S. marcescens (Serratia marcescens; 96-well plate, 37° C., 10 h): 50 µg/mL; MIC E. coli BL21 (E. coli BL21; 96-well plate, 37° C., 10 h): 12.5 µg/mL; MIC E. cloacae (Enterobacter cloacae; 96-well plate, 37° C., 10 h): 25 µg/mL; MIC M. catarrhalis (Moraxella catarrhalis; 96-well plate, 37° C., 10 h): 25 µg/mL; MIC A. hydrophila (Aeromonas hydrophila; 96-well plate, 37° C., 10 h): 50 µg/mL"
PRT1286 (PKSPCEGTECQNGANCVDQGNRPVCQCLPGFGGPECE; listed as Homo sapiens),12.5,–,–,–,–,–,–,–,–,–,–,"MIC against P. mirabilis (Proteus mirabilis; 96-well plate, 37° C., 10 h): 50 µg/mL; MIC against P. vulgaris (Proteus vulgaris; 96-well plate, 37° C., 10 h): 25 µg/mL; MIC against K. pneumonia (Klebsiella pneumonia; 96-well plate, 37° C., 10 h): 50 µg/mL; MIC against C. diversus (Citrobacter diversus; 96-well plate, 37° C., 10 h): 12.5 µg/mL; MIC against P. aeruginosa (Pseudomonas aeruginosa; 96-well plate, 37° C., 10 h): 12.5 µg/mL; MIC against S. marcescens (Serratia marcescens; 96-well plate, 37° C., 10 h): 12.5 µg/mL; MIC against E. coli BL21 (E. coli BL21; 96-well plate, 37° C., 10 h): 50 µg/mL; MIC against E. cloacae (Enterobacter cloacae; 96-well plate, 37° C., 10 h): 12.5 µg/mL; MIC against M. catarrhalis (Moraxella catarrhalis; 96-well plate, 37° C., 10 h): 25 µg/mL; MIC against A. hydrophila (Aeromonas hydrophila; 96-well plate, 37° C., 10 h): 50 µg/mL"
PRT658 (DVNECELMLAVCGAALCENVEGSFLCLCASDLEEYDAQEGHCR; listed as Homo sapiens),12.5,–,–,–,–,–,–,–,–,–,–,"MIC P. mirabilis (Proteus mirabilis; 96-well plate, 37° C., 10 h): 25 µg/mL; MIC P. vulgaris (Proteus vulgaris; 96-well plate, 37° C., 10 h): 50 µg/mL; MIC K. pneumonia (Klebsiella pneumonia; 96-well plate, 37° C., 10 h): 25 µg/mL; MIC C. diversus (Citrobacter diversus; 96-well plate, 37° C., 10 h): 50 µg/mL; MIC P. aeruginosa (Pseudomonas aeruginosa; 96-well plate, 37° C., 10 h): 50 µg/mL; MIC S. marcescens (Serratia marcescens; 96-well plate, 37° C., 10 h): 12.5 µg/mL; MIC E. coli BL21 (E. coli BL21; 96-well plate, 37° C., 10 h): 25 µg/mL; MIC E. cloacae (Enterobacter cloacae; 96-well plate, 37° C., 10 h): 12.5 µg/mL; MIC M. catarrhalis (Moraxella catarrhalis; 96-well plate, 37° C., 10 h): 12.5 µg/mL; MIC A. hydrophila (Aeromonas hydrophila; 96-well plate, 37° C., 10 h): 25 µg/mL"
PRT175 (CEHAPCHNGATCHERGHRYVCECARGYGGPNC; listed as Homo sapiens),12.5,–,–,–,–,–,–,–,–,–,–,MIC (μg/mL) P. mirabilis (Proteus mirabilis; 10 h cultivation at 37° C.): 12.5 µg/mL; MIC (μg/mL) P. vulgaris (Proteus vulgaris; 10 h cultivation at 37° C.): 25 µg/mL; MIC (μg/mL) K. pneumonia (Klebsiella pneumonia; 10 h cultivation at 37° C.): 12.5 µg/mL; MIC (μg/mL) C. diversus (Citrobacter diversus; 10 h cultivation at 37° C.): 12.5 µg/mL; MIC (μg/mL) P. aeruginosa (Pseudomonas aeruginosa; 10 h cultivation at 37° C.): 12.5 µg/mL; MIC (μg/mL) S. marcescens (Serratia marcescens; 10 h cultivation at 37° C.): 12.5 µg/mL; MIC (μg/mL) E. coli BL21 (E. coli BL21; 10 h cultivation at 37° C.): 12.5 µg/mL; MIC (μg/mL) E. cloacae (Enterobacter cloacae; 10 h cultivation at 37° C.): 12.5 µg/mL; MIC (μg/mL) M. catarrhalis (Moraxella catarrhalis; 10 h cultivation at 37° C.): 25 µg/mL; MIC (μg/mL) A. hydrophila (Aeromonas hydrophila; 10 h cultivation at 37° C.): 25 µg/mL
PRT1368 (EKRCPGDCSGHGFCDTGECYCEEGFTGLDCA; listed as Homo sapiens),12.5,12.5,12.5,25,12.5,12.5,12.5,25,12.5,12.5,25,–
PRT1312 (LQPVCTPPCAPEAVCRAGNSCECSLGYEGDGRVCT; listed as Homo sapiens),50,–,–,–,–,–,–,–,–,–,–,"MIC against P. mirabilis (Proteus mirabilis; 96-well plate, 37° C., 10 h): 50 µg/mL; MIC against P. vulgaris (Proteus vulgaris; 96-well plate, 37° C., 10 h): 12.5 µg/mL; MIC against K. pneumonia (Klebsiella pneumonia; 96-well plate, 37° C., 10 h): 12.5 µg/mL; MIC against C. diversus (Citrobacter diversus; 96-well plate, 37° C., 10 h): 50 µg/mL; MIC against P. aeruginosa (Pseudomonas aeruginosa; 96-well plate, 37° C., 10 h): 50 µg/mL; MIC against S. marcescens (Serratia marcescens; 96-well plate, 37° C., 10 h): 50 µg/mL; MIC against E. coli BL21 (E. coli BL21; 96-well plate, 37° C., 10 h): 12.5 µg/mL; MIC against E. cloacae (Enterobacter cloacae; 96-well plate, 37° C., 10 h): 50 µg/mL; MIC against M. catarrhalis (Moraxella catarrhalis; 96-well plate, 37° C., 10 h): 12.5 µg/mL; MIC against A. hydrophila (Aeromonas hydrophila; 96-well plate, 37° C., 10 h): 12.5 µg/mL"
PRT1463 (CDCDTAGSLPGTVCNAKTGQCICKPNVEGRQCNKCLEGNFYLRQNNSFLCLP; listed as Homo sapiens),50,12.5,25,25,50,12.5,12.5,25,50,25,12.5,–
